Test results: publication PMC12121987, “New structural scaffolds to enhance the metabolic stability of arginine-derived PAD4 inhibitors” (Results in chemistry, 2025)
Where two headings read alike, the source gives them in different places.

Tests used:
PAD1 = molecular target: T1, PAD1 (Homo sapiens, UniProt Q9ULC6); assay: PAD1 inhibitory activity; type: biochemical; conditions: n = 3
T1 sequence (Q9ULC6 1-663): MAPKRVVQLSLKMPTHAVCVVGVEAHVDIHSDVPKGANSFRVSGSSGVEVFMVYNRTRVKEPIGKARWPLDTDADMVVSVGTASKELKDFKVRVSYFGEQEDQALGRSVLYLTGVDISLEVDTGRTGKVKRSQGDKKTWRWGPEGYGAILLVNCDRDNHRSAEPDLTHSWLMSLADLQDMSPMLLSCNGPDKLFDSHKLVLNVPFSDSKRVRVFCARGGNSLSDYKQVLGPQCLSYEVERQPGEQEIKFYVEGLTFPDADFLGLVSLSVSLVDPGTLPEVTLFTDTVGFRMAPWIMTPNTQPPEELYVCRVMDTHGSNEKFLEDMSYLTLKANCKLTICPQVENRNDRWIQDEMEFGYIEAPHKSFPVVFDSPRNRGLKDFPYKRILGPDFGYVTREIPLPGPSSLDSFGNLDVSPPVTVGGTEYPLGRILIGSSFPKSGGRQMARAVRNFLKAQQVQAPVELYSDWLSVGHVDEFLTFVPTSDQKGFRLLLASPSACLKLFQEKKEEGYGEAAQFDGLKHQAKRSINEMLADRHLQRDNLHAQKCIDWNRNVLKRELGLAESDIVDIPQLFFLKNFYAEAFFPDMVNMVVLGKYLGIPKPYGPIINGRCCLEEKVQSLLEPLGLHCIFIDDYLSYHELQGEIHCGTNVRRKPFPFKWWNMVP

PAD2 = PAD2 (Homo sapiens, UniProt Q9Y2J8); assay: PAD2 inhibitory activity; type: biochemical; conditions: n = 3
PAD4 [1] = molecular target: T2, PAD4 (Homo sapiens, UniProt Q9UM07); assay: PAD4 enzyme inhibition assay (Cayman PAD4 inhibitor screening kit, AMC); type: biochemical; conditions: n = 3; read-out: Inhibitory activity IC50 PAD4
T2 construct: purchased Cayman Chemical
Method: chromatography with ACN:H2O (0.02% formic acid) as the mobile phase, and then […]
(§1) PAD4 Enzyme Inhibition Assays
(§2) PAD4 Inhibitor Screening Assay Kit (AMC) was purchased from Cayman. Different concentrations of the test compounds were added to a 96-well plate with PAD4 enzyme enzyme and incubated at 37 °C for 10 minutes or 30 minutes. Then […] was added toinitiate the reaction and incubated at 37 °C for 20 min. The reaction was terminated by the addition of Develop solution.
Fluorescence analysis was performed at excitation wavelengths of 355 ~ 365 nm and emission wavelengths of 445 ~ 455 nm. The fluorescence signal was inversely proportional to the amount ofcitrullination. IC50 were analyzed using GraphPad Prism […]
(§3) Microsomal metabolic stability assay protocol
(§4) Pooled liver microsomes from male C57BL/6 mouse (MLM) and mixed gender human (HLM) were obtained from Sekisui XenoTech (Kansas City, KS). Stock solutions of compounds (1 mM) were prepared in DMSO and diluted to 10 μM working solution using phosphate buffer (100 mM, pH 7.4). Microsomes (20 mg/mL) were thawed on ice and diluted to 1 mg/mL using potassium phosphate buffer (100 mM, pH 7.4). The mixture of liver microsomes and test compounds (0.2 μM) was (1 picture or pasted object on this page, not shown here)

[2] = Microsomal metabolic stability, mouse liver microsomes; type: in vitro ADME; conditions: male, C57BL/6, mouse, pooled liver microsomes; for remaining at 1 h, 0.2 μM: pH 7.4, 60 min, n = 3, read-out: %remaining in MLM; for half-life at 0.2 μM: pH 7.4, MLM
Method: (§5) The metabolic stability of the compounds was evaluated using mouse liver microsomes (MLM) and human liver microsomes (HLM). Each compound was tested at a final concentration of 0.2 μM to determine their half-lives. […]
as §3
as §4, with “here) […]” for “here)”
(§6) preincubated at 37°C for 10 min. Next, NADPH-regenerating system (final concentrations of 1 mM NADP+, 5 mM glucose-6-phosphate, and 1 U/mL glucose-6-phosphate dehydrogenase) as a cofactor was added to the incubation mixtures at the final volume of 1000 μL to initiate the metabolic reactions. Quenching of the metabolic reaction was performed at specific intervals: 0, 5, 15, 30, and 60 min by adding100 μL of reaction mixtures to ice-cold acetonitrile (4 volumes) containing 25 nM internal standard. The samples were kept on ice for 15 minutes, followed by protein precipitation through centrifugation at 3600 rpm for 10 minutes at4°C. Finally, the liquid chromatography-mass spectrometry/MS (LC-MS/MS) analysis was conducted on obtained supernatants. To ensure accuracy, all measurements were […]
(§7) The percent of remaining compound (%R) compared to zero sample time was obtained at each time point using LC-MS peak areas. A plot was created for the natural logarithm (ln) of % R against the incubation time to determine the elimination rate constant from the slope of the linear part. The in vitro t1/2was measured by […]
(§8) While the following Eq. (2) was used for calculating CLint (μL/min/mg): […]

PAD4 [3] = molecular target: T2, PAD4; assay: Time-dependent PAD4 inhibition assay (pre-incubation 10 or 30 min); type: biochemical; conditions: BB-Cl-amidine 1 μM, 7 125 μM, 8 45 μM, n = 3
Method: To test this hypothesis, the three compounds (3, 7 and 8) were further assessed through a time-dependent inhibition assay. This assay involved pre-incubating the compounds with the PAD4 enzyme for 10 and 30 min before initiation of the enzymatic reaction.
Fig. 3. Inhibition of PAD4 with a pre-incubation of the enzyme and tested compounds for 10- or 30-min. […]
as §1, §2
Fluorescence analysis was performed at excitation wavelengths of 355 ~ 365 nm and emission wavelengths of 445 ~ 455 nm. The fluorescence signal was inversely

A549 cells = assay: MTT cytotoxicity assay; type: cell-based; conditions: 50 μM and 5 μM, 48-hour incubation
Method: (§9) The cytotoxicity of three compounds on A549 cells was evaluated using the MTT assay.
(§10) In vitro cytotoxicity was evaluated using the MTT
(§11) (3-(4,5-dimethylthiazol-2-yl)-2,5-diphenyltetrazolium bromide) assay. Freshly trypsinized A549 cells were seeded into 96-well plates at a density of 5 × 10⁴ cells/mL, with 100 µL per well, and incubated at 37°C in a 5% CO₂ atmosphere for 12 hours. […]
(§12) concentrations of 500 μM, 50 μM, and 5 μM (25 µL per well), followed by 48-hour incubation. After this period, MTT solution (5 mg/mL) was added to each well at 25 µL per well, and the plates were incubated for an additional 4 hours. Control wells containing untreated cells were handled identically. Following incubation, the medium in the 96-well plate was removed, and 100 µL of DMSO was added to each well to dissolve the formazan crystals produced by the reduction of MTT in viable cells. Absorbance was measured using a microplate reader. Cell viability was determined using the following formula: Cell viability (%) = (OD-treated cells)/(OD […]

MTT cytotoxicity assay = type: cell-based; conditions: human, A549 cells, 48-hour incubation; for viability at 48 h, 500 µM: read-out: Cell viability of A549 cells; for IC50 at 48 h: read-out: IC50 against A549 cells (cytotoxicity)
Method: as §9, §10, §11, §12

[4] = Microsomal metabolic stability, human liver microsomes; type: in vitro ADME; conditions: both sexes, pooled liver microsomes; for remaining at 1 h, 0.2 μM: pH 7.4, 60 min, n = 3, read-out: %remaining in HLM; for half-life at 0.2 μM: pH 7.4, HLM, read-out: half-life (t1/2) in human liver microsomes
Method: as §5, §3
as §4, with “here) […]” for “here)”
as §6, §7, §8

[5] = cited from earlier work
[6] = read-out: half-life (t1/2) in mouse liver microsomes
[7] = rough estimation beyond the 60 min assay, read-out: t1/2 in MLM, rough estimation

T2 sequence (Q9UM07 whole entry): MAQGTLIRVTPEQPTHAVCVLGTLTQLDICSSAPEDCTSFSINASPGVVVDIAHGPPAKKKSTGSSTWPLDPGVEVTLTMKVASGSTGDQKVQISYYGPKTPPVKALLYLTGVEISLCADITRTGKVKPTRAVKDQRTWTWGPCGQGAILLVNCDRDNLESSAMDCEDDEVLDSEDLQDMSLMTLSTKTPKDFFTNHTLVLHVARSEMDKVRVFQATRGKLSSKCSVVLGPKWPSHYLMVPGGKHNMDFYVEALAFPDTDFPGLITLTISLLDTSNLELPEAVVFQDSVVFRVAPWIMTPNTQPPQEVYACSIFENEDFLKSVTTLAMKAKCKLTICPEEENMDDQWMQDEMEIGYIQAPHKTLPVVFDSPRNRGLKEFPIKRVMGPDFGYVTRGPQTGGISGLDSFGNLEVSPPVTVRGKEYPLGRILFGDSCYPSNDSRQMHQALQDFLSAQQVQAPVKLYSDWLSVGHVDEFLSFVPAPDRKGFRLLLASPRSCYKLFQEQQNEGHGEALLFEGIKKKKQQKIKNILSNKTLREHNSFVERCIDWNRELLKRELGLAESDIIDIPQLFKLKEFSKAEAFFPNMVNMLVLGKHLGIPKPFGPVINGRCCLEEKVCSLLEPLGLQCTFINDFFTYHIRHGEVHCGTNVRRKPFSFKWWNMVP
PAD2, sequence (Q9Y2J8 whole entry, species assumed): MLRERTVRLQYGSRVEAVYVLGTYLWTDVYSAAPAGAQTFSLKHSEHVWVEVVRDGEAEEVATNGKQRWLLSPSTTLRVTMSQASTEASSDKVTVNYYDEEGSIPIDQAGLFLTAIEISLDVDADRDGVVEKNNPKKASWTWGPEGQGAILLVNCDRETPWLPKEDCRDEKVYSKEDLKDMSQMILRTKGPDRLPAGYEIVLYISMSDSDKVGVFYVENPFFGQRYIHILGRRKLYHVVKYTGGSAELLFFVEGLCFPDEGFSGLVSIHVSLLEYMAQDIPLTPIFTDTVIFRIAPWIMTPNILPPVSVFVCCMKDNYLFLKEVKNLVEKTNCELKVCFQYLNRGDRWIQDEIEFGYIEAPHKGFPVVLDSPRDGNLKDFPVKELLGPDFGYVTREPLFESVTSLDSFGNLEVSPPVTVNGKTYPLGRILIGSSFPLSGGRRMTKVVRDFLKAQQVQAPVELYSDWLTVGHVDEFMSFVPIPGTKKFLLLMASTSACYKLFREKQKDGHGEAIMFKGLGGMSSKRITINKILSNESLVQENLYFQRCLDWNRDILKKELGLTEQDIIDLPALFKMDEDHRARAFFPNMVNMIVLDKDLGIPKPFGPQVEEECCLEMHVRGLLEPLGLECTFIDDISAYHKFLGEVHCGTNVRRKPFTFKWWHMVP

Row | SMILES | IC50 (PAD1) | IC50 (PAD2) | IC50 (PAD4 [1]) | remaining at 1 h, 0.2 μM [2] | half-life at 0.2 μM [2, 6] | half-life at 0.2 μM [2, 7] | %inhibition of PAD4, pre-incubation 10 min (PAD4 [3]) | %inhibition of PAD4, pre-incubation 30 min (PAD4 [3]) | Cytotoxicity on A549 cells (A549 cells) | viability at 48 h, 500 µM (MTT cytotoxicity assay) | IC50 at 48 h (MTT cytotoxicity assay) | remaining at 1 h, 0.2 μM [4] | half-life at 0.2 μM [4] | t1/2 (pharmacokinetic studies) ([5]; in vivo) | t1/2 (pharmacokinetic studies) [5]
1 | O=C(CO)NCCC[C@H](NC(=O)c1ccc(-c2ccccc2)cc1)c1nc2ccccc2[nH]1 [Compound 8] | 32 ± 0.78 µM | 74.9 ± 6.48 µM | 46.5 ± 4.46 µM | 63 ± 4.85% | > 1 h | ~1.45 h | 49.28% | 51.44% | no cytotoxicity | 103% | > 500 µM | 73.2 ± 1.89% | > 1 h | – | –
2 | N=C(CCl)NCCC[C@H](NC(=O)c1ccc(-c2ccccc2)cc1)c1nc2ccccc2[nH]1 [BB-Cl-amidine, reference compound] | – | – | – | 10.4 ± 1.42% | 0.302 h | – | – | – | – | – | – | 51.8 ± 7.48% | 1.03 h | – | –
3 | N=C(CO)NCCC[C@H](NC(=O)c1ccc(-c2ccccc2)cc1)c1nc2ccccc2[nH]1 [Compound 7] | 194 ± 8.21 µM | 352 ± 21.3 µM | 125 ± 10.2 µM | 75.9 ± 4.75% | > 1 h | ~2.65 h | 31.46% | 36.86% | no cytotoxicity | 26.8% | ~455 µM | 90.3 ± 10.6% | > 1 h | – | –
4 | N=C(CCl)NCCC[C@H](Nc1ccc([N+](=O)[O-])c2nonc12)C(=O)NCc1ccccc1 [ZD-E-1] | – | – | – | – | – | – | – | – | – | – | – | – | – | 0.41 h | –
5 | N=C(CCl)NCCC[C@H](NC(=O)c1ccc(B(O)O)cc1)C(=O)NCc1ccccc1 [YJ-4B] | – | – | – | – | – | – | – | – | – | – | – | – | – | – | 0.35 h
